Target: T1, RIPK3 (Homo sapiens, UniProt Q9Y572)
T1 construct: purchased Thermo Fisher Scientific (Life Technologies) SelectScreen
Test: SelectScreen LanthaScreen
Format: binding
Settings: read-out: % displacement
Procedure, shortened: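 Percent values come from Thermo SelectScreen profiling of NU5455, combining activity and binding assays. CSF1R was run in Z'LYTE format at Km app ATP, and CAMK1 in Adapta format with ATP listed at 10.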

T1 sequence (Q9Y572 whole entry): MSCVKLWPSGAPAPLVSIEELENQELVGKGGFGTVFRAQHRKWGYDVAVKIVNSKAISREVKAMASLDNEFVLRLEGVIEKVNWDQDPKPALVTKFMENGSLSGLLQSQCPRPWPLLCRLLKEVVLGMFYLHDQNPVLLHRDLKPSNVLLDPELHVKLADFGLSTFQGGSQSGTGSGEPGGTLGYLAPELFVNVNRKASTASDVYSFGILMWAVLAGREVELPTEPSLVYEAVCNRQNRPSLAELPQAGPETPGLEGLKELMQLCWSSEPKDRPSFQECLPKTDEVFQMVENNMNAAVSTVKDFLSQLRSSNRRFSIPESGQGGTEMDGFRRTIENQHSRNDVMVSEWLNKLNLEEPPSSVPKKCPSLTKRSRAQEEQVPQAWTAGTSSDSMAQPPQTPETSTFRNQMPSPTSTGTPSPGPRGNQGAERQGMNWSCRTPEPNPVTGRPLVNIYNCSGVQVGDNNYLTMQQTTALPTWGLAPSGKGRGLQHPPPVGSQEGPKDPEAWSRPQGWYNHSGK

For `CN(C(=O)CN1CCOCC1)c1ccc2sc3c(-c4cccc5c(=O)cc(N6CC7CCC(C6)O7)oc45)cccc3c2c1` [NU5455], the inhibition at 1 µM was -2.3%.

— publication PMC6934184, “Selective DNA-PKcs inhibition extends the therapeutic index of localized radiotherapy and chemotherapy” (The Journal of Clinical Investigation, 2019)
